We go through one molecule from patent US20210002262A1, “CYANOPYRROLIDINES AS USP30 INHIBITORS AND FIBROSIS TREATMENT” (MISSION THERAPEUTICS LIMITED, priority 2018, published 2021).

“Also recorded” adds a separate entry of the source.

Data set [1] deals with Bleomycin-induced lung fibrosis. The data set can be described thus: Bleomycin-induced lung fibrosis model. Particulars: for In life mortality: oral, days 7 to 21, bleomycin 1.5 U/kg.
Procedure: Treatment group animals (n=10/group) received 1.5 U/kg of clinical bleomycin via oropharyngeal route on day 0 under inhalant anaesthesia. Animals were monitored for tolerance of the bleomycin administration procedure and subsequently bodyweights of all mice were recorded at least 3 times per week during the study. […] All treatments were administered orally.
At day 21, lungs were harvested from each animal and weighed, followed by fixation in 10% neutral buffered formalin (NBF) for histopathological analysis. The lung samples were processed and embedded with all lobes from each mouse in one paraffin block. Coronal sections through the four major lobes were stained with Masson's Trichrome. For each animal, consecutive lung fields were examined at 200×magnification in a raster pattern using a 20×objective lens and a 10×ocular lens. […] The Fibrotic Index was calculated as the sum of the modified Ashcroft field scores divided by the number of fields examined.
In a further data set the target is T1, USP30 (Homo sapiens, UniProt Q70CQ3).
T1 sequence (Q70CQ3 1-517): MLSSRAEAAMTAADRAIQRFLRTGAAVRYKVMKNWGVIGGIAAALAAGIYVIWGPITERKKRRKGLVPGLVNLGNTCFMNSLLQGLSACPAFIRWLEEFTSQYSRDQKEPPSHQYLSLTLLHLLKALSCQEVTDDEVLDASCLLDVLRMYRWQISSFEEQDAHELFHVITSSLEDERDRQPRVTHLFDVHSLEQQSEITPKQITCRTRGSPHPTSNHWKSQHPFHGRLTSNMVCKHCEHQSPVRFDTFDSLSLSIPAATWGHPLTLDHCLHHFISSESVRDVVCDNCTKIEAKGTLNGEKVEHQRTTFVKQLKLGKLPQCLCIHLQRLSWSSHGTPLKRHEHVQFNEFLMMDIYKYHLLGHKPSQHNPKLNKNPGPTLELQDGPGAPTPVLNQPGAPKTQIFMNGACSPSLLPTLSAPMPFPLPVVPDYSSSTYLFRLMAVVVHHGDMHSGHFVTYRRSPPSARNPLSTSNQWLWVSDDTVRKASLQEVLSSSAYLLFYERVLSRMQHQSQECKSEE
The data set can be described thus: USP30 biochemical IC50 assay. The settings on record: Examples of WO 2017/103614. The procedure:
Dilution plates were prepared at 21 times the final concentration (2100 μM for a final concentration of 100 μM) in 50% DMSO in a 96-well polypropylene V-bottom plate (Greiner #651201). A typical 8-point dilution series would be 100, 30, 10, 3, 1, 0.3, 0.1, 0.03 μM final. Reactions were performed in duplicate in black 384 well plates (small volume, Greiner 784076) in a final reaction volume of 21 μl. Either 1 μl of 50% DMSO or diluted compound was added to the plate. USP30 was diluted in reaction buffer (40 mM Tris, pH 7.5, 0.005% Tween 20, 0.5 mg/ml BSA, 5 mM beta-mercaptoethanol) to the equivalent of 0.05 μl/well and 10 μl of diluted USP30 was added to the compound. Enzyme and compound were incubated for 30 min at room temp. Reactions were initiated by the addition of 50 nM of TAMRA labelled peptide linked to ubiquitin via an iso-peptide bond as fluorescence polarisation substrate. Reactions were read immediately after addition of substrate and following a 2-hour incubation at room temperature. Readings were performed on a Pherastar Plus (BMG Labtech). λ Excitation 540 nm; λ Emission 590 nm.

Data set [2] has as its system Unilateral ureteral obstruction (UUO) kidney fibrosis. The data set can be described thus: Unilateral ureteral obstructive kidney disease model (UUO). In kind it is in vivo. The settings on record: for In life mortality / collagen (picrosirius red staining): UUO. From the text: In this study, adult C57B16 female mice at 7 to 8 weeks of age with average weight of around 18 to 20 g were used. To complete the ureteral obstruction, the abdominal cavity was exposed via a midline incision and the left ureter was ligated at two points with 4-0 silk and dissected. Successful unilateral ureteral obstruction was later confirmed by observation of dilation of the renal pelvis due to hydronephrosis.
At harvest, mice were anesthetised and both kidneys were harvested; the contralateral kidney serves as control for the UUO kidney. The kidneys were dissected along median line into two parts, of which one side was fixed in formaldehyde, for paraffin embedding and the other was snap frozen for protein or RNA isolation.
Formalin fixed tissue were embedded in paraffin blocks and cut into 5 μm sections. All damaged kidneys, 5 contralateral kidneys from each group and 3 sham kidneys were analysed (in total n=80 kidney samples). Picrosirius Red and α-SMA stain was performed to evaluate fibrotic changes and myofibroblast activation. Analysis was performed by a pathology trained technical staff member, without knowledge of the animal group assignment. High magnification images were taken of each slide an analysed for the surface area covered by the stain.

The next data set deals with diet-induced NAFLD/NASH. The data set can be described thus: Diet-induced model of NAFLD/NASH. Format: in vivo, mice. The settings on record: 8 weeks. The procedure:
Mice were fed Amylin-diet (D09100301, Research Diets, US; 40% fat (18% trans-fat), 40% carbohydrate (20% fructose) and 2% cholesterol) for 37 weeks. Liver biopies were harvested and mice were randomization into treatment groups based on liver Colla1 quantification. Three weeks following biopsy surgery, study animals were dosed orally (P.O.) with either; Vehicle (0.5% HPMC/0.5% PVP/0.1% SDS nanosuspension), MT#1 @ 15 mg/kg QD or MT#1 @ […] QD […] or with Elafibranor @ 30 mg/kg QD (positive control) for eight (8) weeks. A control group of age- and sex-matched mice fed lean chow diet ad libitum were also administered vehicle (P.O) over the same 8 (eight) week period. Following the full dosing schedule, mice were sacrificed, whole livers resected and weighed, fixed in paraformaldehyde before being paraffin embedded. H&E stained slides were then prepared and the average % fractional area of lipid vacuoles (steatosis) determined for each section (@ 20×objective) using Visiomorph software (Visophram, Denmark). The average % fractional area was multiplied by the total liver weight to determine the total liver lipid content per animal. Values expressed as mean of n=9-12+SEM. Dunnett's test one-factor linear model. **: P<0.01, ***: P<0.001 compared to DIO-NASH Vehicle.
Summary of fibrosis stage scores of pre- and post-study liver biopsies harvested from the diet-induced NAFLD/NASH study. Fibrosis stage scores are determined by assessment of picosirius red stained liver sections for relative appearance and location of collagen staining, where; 0=No staining, 1=Perisinusoidal or periportal, 2=Perisinusoidal and periportal and […]=Bridging collagen staining observed. For each group of animals with higher (worsening), same or lower (improvement) in score at post-compared to pre-study is indicated by the height of the bar. One-sided Fisher's exact test with Bonferroni correction. No differences at significance level 0.05.

For orientation: IC50 means the concentration at which inhibition is half-maximal. With `N#Cc1cccc(-c2nnc(C(=O)NC[C@H]3CCN(C#N)C3)o2)c1` [Example 68, (R)-5-(3-cyanophenyl)-N-((1-cyanopyrrolidin-3-yl)methyl)-1,3,4-oxadiazole-2-carboxamide], the In life mortality is listed as 10% in data set [1] (5 mg/kg MT#1 nanosuspension BID); 10% in data set [1] (15 mg/kg MT#1 nanosuspension BID); 0% in data set [1] (50 mg/kg MT#1 nanosuspension BID); 10% in data set [2] (5 mg/kg MT#1 nanosuspension BID PO, days 0 to 10); 0% in data set [2] (15 mg/kg MT#1 nanosuspension BID PO, days 0 to 10); 10% in data set [2] (50 mg/kg MT#1 nanosuspension BID PO, days 0 to 10). Further, the “fibrosis as assessed by the modified Ashcroft score, effect compared to vehicle” value in data set [1] (50 mg/kg BID oral, one-way ANOVA + Tukey) is recorded as “statistically significant effect compared to vehicle”. The “fibrosis as assessed by the modified Ashcroft score (collagen deposition, septae thickening)” value in data set [1] (dose ranging 5, 15, 50 mg/kg BID oral, days 7 to 21, harvest day 21) is “dose dependent reduction”. In addition, on USP30, the IC50 is less than 10 nM. In addition, the “collagen (picrosirius red staining)” value in data set [2] (15 mg/kg BID MT#1) and in data set [2] (50 mg/kg BID MT#1) was “Statistically significant decreases” in each case. Also, the “collagen deposition as measured by picrosirius red staining” value in data set [2] (UUO, 5, 15, 50 mg/kg BID PO, days 0 to 10) is “dose dependent decrease”. In the data set on diet-induced NAFLD/NASH (NASH animals, MT#1 15 mg/kg BID (P.O.), compared to DIO-NASH Vehicle), the “total liver lipid content, reduction” value is on record as “statistically significant”. Besides, the “total liver lipid content” value with diet-induced NAFLD/NASH (NASH animals, P.O., dose dependence) is “dose-dependent reduction”. Further, the liver steatosis entry with diet-induced NAFLD/NASH (diet-induced NAFLD/NASH, P.O., Elafibranor 30 mg/kg QD) is “statistically significant reduction”. Besides, the “fibrotic stage scores (picosirius red stained liver sections, post- compared to pre-study biopsy)” value in the data set with diet-induced NAFLD/NASH (diet-induced NAFLD/NASH, P.O., Elafibranor 30 mg/kg QD, listed as MT#1) was “Neither MT#1 or Elafibranor (positive control) significantly improved; also recorded: did not significantly improve”.
